Data as given in ChEMBL document CHEMBL5352410, “Discovery of novel selenium-containing azole derivatives as antifungal agents by exploiting the hydrophobic cleft of CYP51” (Eur J Med Chem, 2022).
In brackets after ≈: the same amount, converted by molar mass.

Experiments:
Candida albicans [1] = assay: Antifungal activity against Candida albicans sc5314 by CLSI based broth microdilution method; type: functional
Candida albicans [2] = assay: Antifungal activity against Candida albicans by CLSI based broth microdilution method; type: functional
Nakaseomyces glabratus = assay: Antifungal activity against Candida glabrata by CLSI based broth microdilution method; type: functional
Candida parapsilosis = assay: Antifungal activity against Candida parapsilosis by CLSI based broth microdilution method; type: functional; conditions: Lodderomyces parapsilosis
Pichia kudriavzevii = assay: Antifungal activity against Pichia kudriavzevii by CLSI based broth microdilution method; type: functional
[Candida] zeylanoides = Antifungal activity against Candida zeylanoides by CLSI based broth microdilution method; type: functional; conditions: Dujonia zeylanoides
Cryptococcus neoformans = assay: Antifungal activity against Cryptococcus neoformans by CLSI based broth microdilution method; type: functional
Aspergillus fumigatus = assay: Antifungal activity against Aspergillus fumigatus by CLSI based broth microdilution method; type: functional
Candida albicans [3] = assay: Antifungal activity against FCZ-resistant Candida albicans CaR by CLSI based broth microdilution method; type: functional
Candida albicans [4] = assay: Antifungal activity against FCZ-resistant Candida albicans 17# by CLSI based broth microdilution method; type: functional
Candida albicans [5] = assay: Antifungal activity against FCZ-resistant Candida albicans 632 by CLSI based broth microdilution method; type: functional
Candida albicans [6] = assay: Antifungal activity against FCZ-resistant Candida albicans 901 by CLSI based broth microdilution method; type: functional
Candida albicans [7] = assay: Antifungal activity against FCZ-resistant Candida albicans 904 by CLSI based broth microdilution method; type: functional
Candida albicans [8] = assay: Fungicidal activity against Candida albicans; type: functional
Candida albicans [9] = assay: Fungicidal activity against Candida albicans sc5314; type: functional
Candida albicans [10] = assay: Fungicidal activity against FCZ-resistant Candida albicans CaR; type: functional
Candida albicans [11] = assay: Fungicidal activity against FCZ-resistant Candida albicans 17#; type: functional
Candida albicans [12] = assay: Fungicidal activity against FCZ-resistant Candida albicans 632; type: functional
Candida albicans [13] = assay: Fungicidal activity against FCZ-resistant Candida albicans 901; type: functional
Candida albicans [14] = assay: Fungicidal activity against FCZ-resistant Candida albicans 904; type: functional
[15] = molecular target: T1, Lanosterol 14-alpha demethylase (Candida albicans (strain SC5314 / ATCC MYA-2876) (Yeast), UniProt P10613); assay: Inhibition of CYP51 of Candida albicans ATCC SC5314 assessed as decrease in ergosterol level by measuring residual activity at 1 ug/ml incubated for 16 hrs by GC-MS analysis (reference value: 98.3 %); conditions: at 1 µg/mL
T1 sequence (P10613 whole entry): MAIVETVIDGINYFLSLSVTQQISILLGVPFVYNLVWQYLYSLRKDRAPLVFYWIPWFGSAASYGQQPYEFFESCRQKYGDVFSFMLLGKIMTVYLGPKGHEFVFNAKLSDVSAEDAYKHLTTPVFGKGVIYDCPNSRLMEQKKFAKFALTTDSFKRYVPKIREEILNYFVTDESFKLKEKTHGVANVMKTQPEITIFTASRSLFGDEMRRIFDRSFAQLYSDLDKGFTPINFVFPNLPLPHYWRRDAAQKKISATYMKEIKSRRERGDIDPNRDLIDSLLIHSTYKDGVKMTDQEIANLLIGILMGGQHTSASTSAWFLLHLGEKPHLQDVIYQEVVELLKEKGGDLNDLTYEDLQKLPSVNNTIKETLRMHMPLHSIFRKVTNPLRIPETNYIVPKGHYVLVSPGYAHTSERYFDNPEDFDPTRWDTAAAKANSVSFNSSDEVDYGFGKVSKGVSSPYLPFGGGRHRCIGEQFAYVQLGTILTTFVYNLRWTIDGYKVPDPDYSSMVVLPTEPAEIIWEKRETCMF

[16] = molecular target: T1, Lanosterol 14-alpha demethylase; assay: Inhibition of CYP51 of Candida albicans ATCC SC5314 assessed as decrease in ergosterol level by measuring residual activity at 2 ug/ml incubated for 16 hrs by GC-MS analysis (reference value: 98.3 %); conditions: at 2 µg/mL
[17] = molecular target: T1, Lanosterol 14-alpha demethylase; assay: Inhibition of CYP51 of Candida albicans ATCC SC5314 assessed as decrease in ergosterol level by measuring residual activity at 4 ug/ml incubated for 16 hrs by GC-MS analysis (reference value: 98.3 %); conditions: at 4 µg/mL
[18] = molecular target: T1, Lanosterol 14-alpha demethylase; assay: Inhibition of CYP51 of Candida albicans ATCC SC5314 assessed as decrease in ergosterol level by measuring residual activity at 8 ug/ml incubated for 16 hrs by GC-MS analysis (reference value: 98.3 %); conditions: at 8 µg/mL
[19] = molecular target: T1, Lanosterol 14-alpha demethylase; assay: Inhibition of CYP51 of Candida albicans ATCC SC5314 assessed as increase in obtusifoliol level at 1 ug/ml incubated for 16 hrs by GC-MS analysis (reference value: 0 %); parameters: scale not given: the % may be the effect or the level left; conditions: at 1 µg/mL
[20] = molecular target: T1, Lanosterol 14-alpha demethylase; assay: Inhibition of CYP51 of Candida albicans ATCC SC5314 assessed as increase in obtusifoliol level at 2 ug/ml incubated for 16 hrs by GC-MS analysis (reference value: 0 %); parameters: scale not given: the % may be the effect or the level left; conditions: at 2 µg/mL
[21] = molecular target: T1, Lanosterol 14-alpha demethylase; assay: Inhibition of CYP51 of Candida albicans ATCC SC5314 assessed as increase in obtusifoliol level at 4 ug/ml incubated for 16 hrs by GC-MS analysis (reference value: 0 %); parameters: scale not given: the % may be the effect or the level left; conditions: at 4 µg/mL
[22] = molecular target: T1, Lanosterol 14-alpha demethylase; assay: Inhibition of CYP51 of Candida albicans ATCC SC5314 assessed as increase in obtusifoliol level at 8 ug/ml incubated for 16 hrs by GC-MS analysis (reference value: 0 %); parameters: scale not given: the % may be the effect or the level left; conditions: at 8 µg/mL
[23] = molecular target: T1, Lanosterol 14-alpha demethylase; assay: Inhibition of CYP51 of Candida albicans ATCC SC5314 assessed as increase in lanosterol level at 1 ug/ml incubated for 16 hrs by GC-MS analysis (reference value: 1.7 %); parameters: scale not given: the % may be the effect or the level left; conditions: at 1 µg/mL
[24] = molecular target: T1, Lanosterol 14-alpha demethylase; assay: Inhibition of CYP51 of Candida albicans ATCC SC5314 assessed as increase in lanosterol level at 2 ug/ml incubated for 16 hrs by GC-MS analysis (reference value: 1.7 %); parameters: scale not given: the % may be the effect or the level left; conditions: at 2 µg/mL
[25] = molecular target: T1, Lanosterol 14-alpha demethylase; assay: Inhibition of CYP51 of Candida albicans ATCC SC5314 assessed as increase in lanosterol level at 4 ug/ml incubated for 16 hrs by GC-MS analysis (reference value: 1.7 %); parameters: scale not given: the % may be the effect or the level left; conditions: at 4 µg/mL
[26] = molecular target: T1, Lanosterol 14-alpha demethylase; assay: Inhibition of CYP51 of Candida albicans ATCC SC5314 assessed as increase in lanosterol level at 8 ug/ml incubated for 16 hrs by GC-MS analysis (reference value: 1.7 %); parameters: scale not given: the % may be the effect or the level left; conditions: at 8 µg/mL
[27] = molecular target: T1, Lanosterol 14-alpha demethylase; assay: Inhibition of CYP51 of Candida albicans ATCC SC5314 assessed as increase in eburicol level at 1 ug/ml incubated for 16 hrs by GC-MS analysis (reference value: 0 %); parameters: scale not given: the % may be the effect or the level left; conditions: at 1 µg/mL
[28] = molecular target: T1, Lanosterol 14-alpha demethylase; assay: Inhibition of CYP51 of Candida albicans ATCC SC5314 assessed as increase in eburicol level at 2 ug/ml incubated for 16 hrs by GC-MS analysis (reference value: 0 %); parameters: scale not given: the % may be the effect or the level left; conditions: at 2 µg/mL
[29] = molecular target: T1, Lanosterol 14-alpha demethylase; assay: Inhibition of CYP51 of Candida albicans ATCC SC5314 assessed as increase in eburicol level at 4 ug/ml incubated for 16 hrs by GC-MS analysis (reference value: 0 %); parameters: scale not given: the % may be the effect or the level left; conditions: at 4 µg/mL
[30] = molecular target: T1, Lanosterol 14-alpha demethylase; assay: Inhibition of CYP51 of Candida albicans ATCC SC5314 assessed as increase in eburicol level at 8 ug/ml incubated for 16 hrs by GC-MS analysis (reference value: 0 %); parameters: scale not given: the % may be the effect or the level left; conditions: at 8 µg/mL
Candida albicans [31] = assay: Antibiofilm activity against Candida albicans SC5314 assessed as sessile minimum inhibitory concentration measured after 1.5 hrs by XTT assay; type: functional
Candida albicans [32] = assay: Antibiofilm activity against Candida albicans SC5314 assessed as sessile minimum inhibitory concentration measured after 3 hrs by XTT assay; type: functional
Candida albicans [33] = assay: Antibiofilm activity against Candida albicans SC5314 assessed as sessile minimum inhibitory concentration measured after 6 hrs by XTT assay; type: functional
Candida albicans [34] = assay: Antibiofilm activity against Candida albicans SC5314 assessed as sessile minimum inhibitory concentration measured after 24 hrs by XTT assay; type: functional
Candida albicans [35] = assay: Antibiofilm activity against Candida albicans CPCC400616 assessed as sessile minimum inhibitory concentration measured after 1.5 hrs by XTT assay; type: functional
Candida albicans [36] = assay: Antibiofilm activity against Candida albicans CPCC400616 assessed as sessile minimum inhibitory concentration measured after 3 hrs by XTT assay; type: functional
Candida albicans [37] = assay: Antibiofilm activity against Candida albicans CPCC400616 assessed as sessile minimum inhibitory concentration measured after 6 hrs by XTT assay; type: functional
Candida albicans [38] = assay: Antibiofilm activity against Candida albicans CPCC400616 assessed as sessile minimum inhibitory concentration measured after 24 hrs by XTT assay; type: functional
[39] = Cytotoxicity against human HL-60 cells by MTT assay; type: toxicity, cell-based
[40] = Cytotoxicity against human MDA-MB-231 cells by MTT assay; type: toxicity, cell-based
[41] = Cytotoxicity against human PC-3 cells by MTT assay; type: toxicity, cell-based

Clc1ccc(C(Cn2ccnc2)[Se]C(Cn2ccnc2)c2ccc(Cl)cc2)cc1 (stereo not given)
MIC (Candida albicans [1]): 1 µg/mL (≈ 2.04 µM) | MIC (Candida albicans [2]): 2 µg/mL (≈ 4.08 µM) | MIC (Nakaseomyces glabratus): 64 µg/mL (≈ 131 µM) | MIC (Candida parapsilosis): 2 µg/mL (≈ 4.08 µM) | MIC (Pichia kudriavzevii): 16 µg/mL (≈ 32.6 µM) | MIC ([Candida] zeylanoides): 8 µg/mL (≈ 16.3 µM) | MIC (Cryptococcus neoformans): > 64 µg/mL | MIC (Aspergillus fumigatus): > 64 µg/mL | MIC (Candida albicans [3]): 4 µg/mL (≈ 8.16 µM) | MIC (Candida albicans [4]): 1 µg/mL (≈ 2.04 µM) | MIC (Candida albicans [5]): 2 µg/mL (≈ 4.08 µM) | MIC (Candida albicans [6]): 1 µg/mL (≈ 2.04 µM) | MIC (Candida albicans [7]): 1 µg/mL (≈ 2.04 µM) | MFC (Candida albicans [8]): 32 µg/mL (≈ 65.3 µM) | MFC (Candida albicans [9]): 2 µg/mL (≈ 4.08 µM) | MFC (Candida albicans [10]): > 64 µg/mL | MFC (Candida albicans [11]): > 64 µg/mL | MFC (Candida albicans [12]): 4 µg/mL (≈ 8.16 µM) | MFC (Candida albicans [13]): 2 µg/mL (≈ 4.08 µM) | MFC (Candida albicans [14]): 1 µg/mL (≈ 2.04 µM) | Activity [15]: 64.7% | Activity [16]: 10.4% | Activity [17]: 4.4% | Activity [18]: 3.7% | Activity [19]: 1% | Activity [20]: 18% | Activity [21]: 9.5% | Activity [22]: 23.8% | Activity [23]: 5.1% | Activity [24]: 15.4% | Activity [25]: 12.4% | Activity [26]: 17% | Activity [27]: 29.3% | Activity [28]: 56.2% | Activity [29]: 73.8% | Activity [30]: 55.5% | MIC50 (Candida albicans [31]): 0.5 µg/mL (≈ 1.02 µM) | MIC80 (Candida albicans [31]): 2 µg/mL (≈ 4.08 µM) | MIC50 (Candida albicans [32]): 0.5 µg/mL (≈ 1.02 µM) | MIC80 (Candida albicans [32]): 2 µg/mL (≈ 4.08 µM) | MIC50 (Candida albicans [33]): 0.5 µg/mL (≈ 1.02 µM) | MIC80 (Candida albicans [33]): 4 µg/mL (≈ 8.16 µM) | MIC50 (Candida albicans [34]): 0.5 µg/mL (≈ 1.02 µM) | MIC80 (Candida albicans [34]): 2 µg/mL (≈ 4.08 µM) | MIC50 (Candida albicans [35]): 0.5 µg/mL (≈ 1.02 µM) | MIC80 (Candida albicans [35]): 2 µg/mL (≈ 4.08 µM) | MIC50 (Candida albicans [36]): 0.5 µg/mL (≈ 1.02 µM) | MIC80 (Candida albicans [36]): 2 µg/mL (≈ 4.08 µM) | MIC50 (Candida albicans [37]): 1 µg/mL (≈ 2.04 µM) | MIC80 (Candida albicans [37]): 2 µg/mL (≈ 4.08 µM) | MIC50 (Candida albicans [38]): 2 µg/mL (≈ 4.08 µM) | MIC80 (Candida albicans [38]): 4 µg/mL (≈ 8.16 µM) | IC50 [39]: 5.18 µM | IC50 [40]: 3.25 µM | IC50 [41]: 0.98 µM
